Data taken from ChEMBL document CHEMBL1137773, “Novel lead structures for p38 MAP kinase via FieldScreen virtual screening” (J Med Chem, 2009).

Key:
[1] = Inhibition of p38 MAPK at 10 uM by ELISA
[2] = Inhibition of p38 MAPK by ELISA

Cn1nc(CC(=O)Nc2ccc(Br)cc2)c2ccccc2c1=O
inhibition [1]: 15%

Cc1occc1-c1nnc2sc(COc3ccc(F)cc3)nn12
inhibition [1]: 21%

Clc1ccc(-c2nnc3sc(CCc4ccccc4)nn23)c(Cl)c1
inhibition [1]: 45%

CC(C)(C)c1ccc(OCc2nn3c(Cc4ccccc4)nnc3s2)cc1
inhibition [1]: 12%

COc1ccc(Cc2nn3c(-c4ccccc4Cl)nnc3s2)cc1
inhibition [1]: 83%
IC50 [2]: 440 nM

CCn1c(SCc2ccccc2Cl)nc2ccccc2c1=O
inhibition [1]: 28%

Cc1sc(NC(=O)c2ccc(Cl)cc2)c(C(=O)c2ccccc2)c1C
inhibition [1]: 31%

Clc1ccccc1-c1nnc2sc(CCc3ccccc3)nn12
inhibition [1]: 72%
IC50 [2]: 2550 nM

CCC(Oc1ccccc1)c1nn2c(-c3ccoc3C)nnc2s1 (stereo unspecified)
inhibition [1]: 31%

c1ccc(OCc2nn3c(-c4ccccc4)nnc3s2)cc1
inhibition [1]: 39%

COc1ccc(-c2nnc3sc(COc4ccc(F)cc4)nn23)cc1
inhibition [1]: 31%

Cc1occc1-c1nnc2sc(C(C)Oc3ccccc3)nn12 (stereo unspecified)
inhibition [1]: 30%

COc1ccc(OCc2nnc3sc(-c4ccccc4Cl)nn23)cc1
inhibition [1]: 34%

Clc1cccc(-c2nnc3sc(COc4ccccc4)nn23)c1
inhibition [1]: 3%

O=C(c1cn(Cc2ccccc2F)c2ccccc12)C1CC1
inhibition [1]: 23%

Brc1ccccc1-c1nnc2sc(COc3ccccc3)nn12
inhibition [1]: 80%
IC50 [2]: 1240 nM

Cc1ccccc1OCc1nn2c(-c3ccccc3Cl)nnc2s1
inhibition [1]: 65%
IC50 [2]: 3510 nM

COc1cccc(OCc2nn3c(-c4ccccc4)nnc3s2)c1
inhibition [1]: 11%

CCc1cc2c(SCC(=O)Nc3ccc(Br)cc3)ncnc2s1
inhibition [1]: 14%

Cc1nnc2sc(COc3ccccc3)nn12
inhibition [1]: 18%

Clc1ccccc1-c1nnc2sc(COc3ccccc3)nn12
inhibition [1]: 76%
IC50 [2]: 790 nM

Fc1ccc(OCc2nn3c(Cc4ccccc4)nnc3s2)cc1
inhibition [1]: 32%

Cc1ccccc1Cc1nnc2sc(COc3ccccc3)nn12
inhibition [1]: 33%

CCOC(=O)C(C)Sc1nc2c(c(=O)n1-c1ccc(F)cc1)SCC2 (stereo unspecified)
inhibition [1]: 23%

NC(=O)C(c1ccc(Cl)cc1)c1ccc(C(=O)c2ccccc2)cc1 (stereo unspecified)
inhibition [1]: 26%

C=CCNc1sc(C(=O)c2ccc(F)cc2)c(N)c1C#N
inhibition [1]: 46%

O=C(Nc1ccc(F)cc1)c1cccc(S(=O)(=O)Nc2ccccc2)c1
inhibition [1]: 15%

CC(C)(Oc1ccccc1)c1nn2c(-c3ccoc3)nnc2s1
inhibition [1]: 24%

Cc1cccc(CC(=O)N(c2ccc(Br)cc2)C2C=CS(=O)(=O)C2)c1 (stereo unspecified)
inhibition [1]: 2%

COc1ccc(OCc2nn3c(-c4ccc(Cl)cc4Cl)nnc3s2)cc1
inhibition [1]: 31%

Cc1ccc(NC(=O)Nc2c(Cl)cccc2Cl)c2c1CC(C)(C)O2
inhibition [1]: 66%

Cc1sc2ncnc(SCC(=O)c3ccc(F)cc3)c2c1C
inhibition [1]: 24%

Cc1cccc(OCc2nn3c(-c4ccccc4Cl)nnc3s2)c1
inhibition [1]: 76%
IC50 [2]: 1980 nM

COc1ccccc1NC1CC(=O)N(c2ccc(Cl)cc2)C1=O (stereo unspecified)
inhibition [1]: 20%

COc1ccccc1Cc1nnc2sc(COc3ccc(F)cc3)nn12
inhibition [1]: 79%
IC50 [2]: 650 nM

CC(C)(C)c1nnc2sc(COc3ccc(F)cc3)nn12
inhibition [1]: 53%
IC50 [2]: 4710 nM

COc1ccc(OCc2nn3c(-c4ccccc4Cl)nnc3s2)cc1
inhibition [1]: 64%
IC50 [2]: 3880 nM

FC(F)(F)c1nnc2sc(COc3ccccc3)nn12
inhibition [1]: 16%

Cc1ccccc1Cc1nnc2sc(COc3ccc(F)cc3)nn12
inhibition [1]: 36%

Oc1ccc2ccccc2c1C1NN=C(c2ccccc2)S1 (stereo unspecified)
inhibition [1]: 21%

CC(C)Oc1ccc(OCCSc2nc(=O)c3ccccc3[nH]2)cc1
inhibition [1]: 23%

CC1Cc2nc(SCC(N)=O)n(-c3ccc(F)cc3)c(=O)c2S1 (stereo unspecified)
inhibition [1]: 4%

CCC(O)Cc1nc(N)c(C#N)c(-c2ccccc2OC)c1C (stereo unspecified)
inhibition [1]: 20%

CC(C)(C)c1nnc2sc(COc3ccccc3)nn12
inhibition [1]: 61%
IC50 [2]: 3980 nM

Cc1ccc(CNC(=O)CN(c2cccc(Cl)c2)S(C)(=O)=O)cc1
inhibition [1]: 1%

Fc1ccccc1-c1nnc2sc(COc3ccccc3)nn12
inhibition [1]: 73%
IC50 [2]: 3080 nM

Cc1cc(-c2nnc3sc(COc4ccc(F)cc4)nn23)n(C)n1
inhibition [1]: 22%

COc1ccccc1Cc1nnc2sc(COc3ccccc3)nn12
inhibition [1]: 77%
IC50 [2]: 740 nM

Cc1onc(-c2c(Cl)cccc2Cl)c1C(=O)N1CCCCC1C (stereo unspecified)
inhibition [1]: 14%

c1ccc(CCc2nn3c(-c4ccncc4)nnc3s2)cc1
inhibition [1]: 26%

CCc1ccc(OCC(=O)Nc2cccc3nc(C)ccc23)cc1
inhibition [1]: 4%

Fc1ccc(-c2nnc3sc(CCc4ccccc4)nn23)cc1
inhibition [1]: 32%

CCSc1ccccc1C(=O)N1CCc2ccccc21
inhibition [1]: 4%

Cc1nn(Cc2ccccc2)c2c1C(c1ccc(Br)cc1)C(C#N)=C(N)O2 (stereo unspecified)
inhibition [1]: 40%
